In assay [1] the target is T1, factor Xa (Homo sapiens, UniProt P00742).
T1 construct: tissue Octapharma; host or cells: citrate plasma
Put plainly: biochemical. The conditions noted are these: factor Xa inhibition in citrate plasma (Octapharma), factor X activated by Russel viper venom, ChromozymX substrate, read at about 12 min. On the procedure: a.4) Determination of the Factor Xa-inhibitory Activity of the Potential Inhibitors in Plasma Samples
To determine the inhibition of factor Xa in plasma samples, the factor X present in plasma is activated by a protease from rattlesnake toxin. The factor Xa activity or its inhibition by potential inhibitors is then measured by addition of a chromogenic substrate.
Various concentrations of the substances to be tested are dissolved in dimethyl sulphoxide and mixed with an aqueous refludan solution (10 μg/ml). In clear 96-well plates having a flat bottom, 30 μl of citrate plasma (Octapharma) are mixed with 10 μl of the substance dilution.

Assay [2] deals with thrombin (Homo sapiens, UniProt P00734). Put plainly: Thrombin-inhibitory activity in plasma samples (ecarin, fluorogenic thrombin substrate). The class given is biochemical. The conditions noted are these: thrombin inhibition in citrate plasma (Octapharma), ecarin-stimulated, read at about 12 min. On the procedure: a.5) Determination of the Thrombin-inhibitory Activity of the Potential Inhibitors in Plasma Samples
Various concentrations of the substances to be tested are dissolved in dimethyl sulphoxide and diluted with water.

T1 sequence (P00742 235-488 limits assumed): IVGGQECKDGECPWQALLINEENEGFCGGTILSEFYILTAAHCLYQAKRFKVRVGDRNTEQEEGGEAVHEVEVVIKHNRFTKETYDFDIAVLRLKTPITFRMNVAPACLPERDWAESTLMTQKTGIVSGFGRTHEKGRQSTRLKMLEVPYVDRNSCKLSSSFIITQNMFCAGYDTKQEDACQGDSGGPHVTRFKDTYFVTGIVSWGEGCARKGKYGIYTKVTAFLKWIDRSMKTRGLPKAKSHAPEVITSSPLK
T1 sequence (P00742 41-179 limits assumed): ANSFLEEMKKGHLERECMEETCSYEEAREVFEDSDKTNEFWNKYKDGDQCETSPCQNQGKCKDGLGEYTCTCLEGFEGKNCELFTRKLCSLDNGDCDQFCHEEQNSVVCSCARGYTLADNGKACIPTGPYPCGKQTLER

A word on the IC50: it is the midpoint of a concentration-inhibition curve. A high value points to weaker potency in that assay. Consider `COc1cc(N2C[C@H](CNC(=O)c3ccc(Cl)s3)OC2=O)ccc1-n1cccc(CCN[C@H]2CC[C@H](O)CC2)c1=O` [Example 6, 5-Chloro-N-{[(5S)-3-{4-[3-{2-[(trans-4-hydroxycyclohexyl)amino]ethyl}-2-oxopyridin-1(2H)-yl]-3-methoxyphenyl}-2-oxo-1,3-oxazolidin-5-yl]methyl}thiophene-2-carboxamide], for which the IC50 amounted to 31 nM in assay [1] and 143 nM in assay [2].
The like results for `COCc1cc(N2C[C@H](CNC(=O)c3ccc(Cl)s3)OC2=O)ccc1-n1cccc(CCNCCO)c1=O` [Example 9, 5-Chloro-N-{[(5S)-3-{4-[3-{2-[(2-hydroxyethyl)amino]ethyl}-2-oxopyridin-1(2H)-yl]-3-(methoxy-methyl)phenyl}-2-oxo-1,3-oxazolidin-5-yl]methyl}thiophene-2-carboxamide] were, in that order, 11 nM and 10 nM.
On the same counts, the results for `COCc1cc(N2C[C@H](CNC(=O)c3ccc(Cl)s3)OC2=O)ccc1-n1cccc(CCN[C@H]2CC[C@H](O)CC2)c1=O` [Example 10, 5-Chloro-N-{[(5S)-3-{4-[3-{2-[(trans-4-hydroxycyclohexyl)amino]ethyl}-2-oxopyridin-1(2H)-yl]-3-(methoxymethyl)phenyl}-2-oxo-1,3-oxazolidin-5-yl]methyl}thiophene-2-carboxamide] are 15 nM and 24 nM.
With `COCc1cc(N2C[C@H](CNC(=O)c3ccc(Cl)s3)OC2=O)ccc1-n1cccc(CCN2CCN(C)CC2)c1=O` [Example 13], the IC50 in assay [1] was 17 nM; in assay [2], 16 nM.
Turning to `COCc1cc(N2C[C@H](CNC(=O)c3ccc(Cl)s3)OC2=O)ccc1-n1cccc(CCNCCCO)c1=O` [Example 16], the 50% inhibitory concentration (IC50) in assay [1] came to 18 nM; in assay [2], 10 nM.
On the same counts, the results for `Cc1cc(N2C[C@H](CNC(=O)c3ccc(Cl)s3)OC2=O)ccc1-n1cccc(OCCN[C@H]2CC[C@H](O)CC2)c1=O` [Example 21, 5-Chloro-N-{[(5S)-3-{4-[3-{2-[(trans-4-hydroxycyclohexyl)amino]ethoxy}-2-oxopyridin-1(2H)-yl]-3-methylphenyl}-2-oxo-1,3-oxazolidin-5-yl]methyl}thiophene-2-carboxamide] are 11 nM and 34 nM.
In the case of `CCCc1cc(N2C[C@H](CNC(=O)c3ccc(Cl)s3)OC2=O)ccc1-n1cccc(OCCNCCO)c1=O` [Example 36, 5-Chloro-N-{[(5S)-3-{4-[3-{2-[(2-hydroxyethyl)amino]ethoxy}-2-oxopyridin-1(2H)-yl]-3-propyl-phenyl}-2-oxo-1,3-oxazolidin-5-yl]methyl}thiophene-2-carboxamide], the IC50 in assay [1] came out at 29 nM; in assay [2] it was 36 nM.
The like results for `Cc1cc(N2C[C@H](CNC(=O)c3ccc(Cl)s3)OC2=O)cc(C)c1-n1cccc(CCNCCO)c1=O` [Example 37, 5-Chloro-N-{[(5S)-3-{4-[3-{2-[(2-hydroxyethyl)amino]ethyl}-2-oxopyridin-1(2H)-yl]-3,5-dimethylphenyl}-2-oxo-1,3-oxazolidin-5-yl]methyl}thiophene-2-carboxamide] were, in that order, 29 nM and 15 nM.

For the origin of these results see patent US8383822B2, “Substituted oxazolidinones and their use” (Bayer Intellectual Property GmbH, priority 2007, dated 2013).
